As usually defined, the IC50 is the concentration needed to halve the response being measured.

The source of these data is patent US11975005B2, “Treatment of respiratory diseases” (TIANLI BIOTECH PTY LTD, priority 2015, dated 2024).

One assay deals with human lung fibroblasts. Put plainly: bFGF/TGFβ proliferation of human lung fibroblasts (viable cell number). It is filed as cell-based. Particulars: 48 h. The source says: Experiments described in the current Example and Example 14 involved culture of human parenchymal fibroblasts, measurement of their proliferation and gene expression response, the methods for which are detailed in Schuliga et al 2009 (Am J Respir Cell Mol Biol. 2009; 41(6):731-41). Interaction between TGFβ and bFGF in human lung fibroblasts. […] An interaction previously characterized in airway smooth muscle cultures is that TGFβ reduces the proliferative effects of bFGF. A similar finding is observed in human lung fibroblasts, whereby TGFβ reduces the bFGF mitogenic effects.

For a further assay, the target named is CK1ε (Homo sapiens, UniProt P49674). The experiment in a line: CK1ε inhibition (IC50). It is filed as biochemical.
Chain of CK1ε (P49674 whole entry): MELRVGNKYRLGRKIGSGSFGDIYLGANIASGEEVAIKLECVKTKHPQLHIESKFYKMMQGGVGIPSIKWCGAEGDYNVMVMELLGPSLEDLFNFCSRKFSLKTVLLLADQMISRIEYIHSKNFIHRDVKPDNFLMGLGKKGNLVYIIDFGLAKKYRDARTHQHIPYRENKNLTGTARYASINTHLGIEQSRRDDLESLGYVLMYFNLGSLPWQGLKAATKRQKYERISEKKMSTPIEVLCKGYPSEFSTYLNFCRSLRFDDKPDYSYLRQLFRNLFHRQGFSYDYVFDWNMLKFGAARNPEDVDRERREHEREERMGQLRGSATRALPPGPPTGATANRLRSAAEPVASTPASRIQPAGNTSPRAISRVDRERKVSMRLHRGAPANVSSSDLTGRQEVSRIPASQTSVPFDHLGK
The target of a further assay is T1, ALK5 (Homo sapiens, UniProt P36897).
T1 sequence (P36897 34-503): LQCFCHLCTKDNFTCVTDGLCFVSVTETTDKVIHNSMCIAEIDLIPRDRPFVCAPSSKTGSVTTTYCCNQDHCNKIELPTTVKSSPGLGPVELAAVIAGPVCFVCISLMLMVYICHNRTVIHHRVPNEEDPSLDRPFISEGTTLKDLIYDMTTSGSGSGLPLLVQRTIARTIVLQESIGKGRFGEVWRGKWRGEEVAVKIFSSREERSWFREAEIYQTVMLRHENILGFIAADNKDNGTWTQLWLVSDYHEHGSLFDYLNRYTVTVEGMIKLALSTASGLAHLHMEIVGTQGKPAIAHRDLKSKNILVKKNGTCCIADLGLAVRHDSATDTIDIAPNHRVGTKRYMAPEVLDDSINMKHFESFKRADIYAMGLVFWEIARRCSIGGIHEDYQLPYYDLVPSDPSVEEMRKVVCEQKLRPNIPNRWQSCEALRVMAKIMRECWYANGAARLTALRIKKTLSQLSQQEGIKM
Put plainly: ALK5 inhibition (IC50). It is filed as biochemical.

The next assay relates to RSV. Put plainly: 5 day model of RSV infection, treatments from day 1. In kind it is in vivo, mice. Particulars: administered from day 1.
Assay [1] has as its system glucocorticoid response element (GRE) activity. The experiment in a line: GRE activity / GRE reporter in BEAS-2B cells. In kind it is cell-based, human. Particulars: BEAS-2B cells; RV16 0.1 or 1.0 MOI; SB431542 1 μM. On the procedure:
Data are presented as the means and SEM of 3 independent experiments. *P<0.05, cf corresponding Dex 30 nM response.
(§1) The methods used in Examples 1 to 5 (and 10, 19, 20) are similar to those reported in Salem et al 2012 (Br J Pharmacol. 166:2036-2048) and again in Keenan et al 2014 (Respiratory Research, e15:55) in which methods for cell culture, GRE assays and gene expression measurements are fully described. Additional methods for growth of respiratory syncytial virus (RSV) and rhinovirus (RV) are described in Collins et al 2007 (Respir Physiol Neurobiol. 2007 Jun. 15; 156(3):345-52.) and by Xatzipsalti and papdopoulos, 2007 (Contrib Microbiol. 2007; 14:33-41).

In assay [2] the test system is GRE-dependent gene expression. Put plainly: Glucocorticoid-induced gene expression in BEAS-2B cells. It is filed as cell-based, human.
Excerpt: as §1
Data are presented as the means and SEM of 4 independent experiments. *P<0.05, cf corresponding Dex 30 nM response. […] Thus, TNFα contribution to glucocorticoid resistance, may be independent of TGFβ. The resistance is exemplified by the epithelial sodium channel alpha subunit SCNN1a which assembles into a Na channel that is thought to contribute to water reabsorption from the airspaces that are flooded during acute lung injury.
TGFβ suppression ranged in magnitude amongst the genes selected for analysis. […] TGFβ and Dex synergise in increasing the expression of PAI-1 (FIG. 24B).

Setting [3] is: human lung fibroblasts, PF4800567 1.0 μM.
Setting [4] is: FIG. 6A, BEAS-2B, SB431542 1 μM, PF670462 10 μM.

For `Nc1ncnc2c1c(COc1cccc(Cl)c1)nn2C1CCOCC1` [PF4800567], the bFGF induced mitogenesis result in the assay with human lung fibroblasts (setting [3]) is on record as “reduced”. In the assay on human lung fibroblasts (setting [3]), the “bFGF induced mitogenesis in the presence of TGFβ” value is listed as “remained suppressed”. The IC50 was found to be 0.011 µM at CK1ε and 4.13 µM against ALK5.

`O=C(NC1CCOCC1)c1ccc(-c2cc(-c3c[nH]nc3-c3ccccn3)ccn2)cc1` [GW788388] yielded a half-inhibitory concentration (IC50) at CK1ε of 18.6 µM. Moreover, the “accumulation of inflammatory cells in the BAL fluid” value in the assay with RSV is on record as “no activity”.

Regarding `NC(=O)c1ccc(-c2nc(-c3ccc4c(c3)OCO4)c(-c3ccccn3)[nH]2)cc1` [SB431542], the “effect of TGFβ on bFGF mitogenesis” value in the assay on human lung fibroblasts (human lung fibroblasts from donors without IPF, viable cell number) is recorded as “able to block”. Also, the “impairment of Dexamethasone 30 nM GRE responses by Rhinovirus (RV16) infection” value in assay [1] is “prevented”. Besides, the “suppression of Dex (30 nM) gene expression response (SCNN1a) induced by IL-13/IL-4” value in assay [2] (BEAS-2B cells, IL-13/IL-4 at 10 ng/ml, PF670462 1 or 10 μM, SB431542 1 μM) was “some impact”. The “impairment of Dexamethasone 30 nM GILZ gene expression responses by RV16 infection” value in assay [2] (BEAS-2B cells, RV16 1.0 MOI, pretreatment) is recorded as “greatly diminished”. In addition, the “suppression of Dex (30 nM) gene expression response (SCNN1a) induced by the combination TNFα, IL-13 and IL-4” value in assay [2] (BEAS-2B cells, each at 0.1 ng/ml, PF670462 1 or 10 μM, SB431542 1 μM) was “no detectable effect”. In addition, the “TGFβ suppression of glucocorticoid-induced CDKN1C (p57kip2) expression” value in assay [2] (BEAS-2B, Dex 100 nM, PF670462 1-10 μM) is recorded as “completely blocked”. For the same molecule, in assay [2] (setting [4]), the “levels of GILZ in RV infected cells” value is reported as “increased” and the “levels of GILZ in uninfected cells” value is “but not in uninfected cells”. The “RV infection-induced decrease of Dex-induced GILZ expression” value in assay [2] (FIG. 6B, BEAS-2B, SB431542 3 μM, PF670462 3 μM) is on record as “prevented”.
